Laboratory results taken from patent US9439432B2, “Phenylisoxazoline-based compound having herbicidal activity and use thereof” (MOGHU RESEARCH CENTER LTD, priority 2011, dated 2016).

Legend:
Type in all cases: in vivo
Corn [1] = experiment: Pre-emergence treatment, phytotoxicity to corn; settings: 500 g/ha, 4 weeks after spraying, scale 0 to 10 (0: no effects, 10: complete death)
Method in brief: (§1)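 Crops and grass weeds were sown in 1:1 sandy loam/bed soil, irrigated, and sprayed one day later at 300 L/ha with 500, 250, 125 or 62.5 g/ha (acetone plus 0.2% tween 20). Greenhouse at 25–30° C day, 15–25° C night; scored 0–10 (10 = complete death) at four weeks.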

Soybean [2] = experiment: Pre-emergence treatment, phytotoxicity to soybean; settings: 500 g/ha, 4 weeks after spraying, scale 0 to 10 (0: no effects, 10: complete death)
Method in brief: as §1

Cotton [3] = experiment: Pre-emergence treatment, phytotoxicity to cotton; settings: 500 g/ha, 4 weeks after spraying, scale 0 to 10 (0: no effects, 10: complete death)
Method in brief: as §1

Wheat [4] = experiment: Pre-emergence treatment, phytotoxicity to wheat; settings: 500 g/ha, 4 weeks after spraying, scale 0 to 10 (0: no effects, 10: complete death)
Method in brief: as §1

Rice [5] = experiment: Pre-emergence treatment, phytotoxicity to rice; settings: 500 g/ha, 4 weeks after spraying, scale 0 to 10 (0: no effects, 10: complete death)
Method in brief: as §1

Echinochloa crusgalli [6] = experiment: Pre-emergence treatment, herbicidal efficacy on barnyardgrass; settings: 4 weeks after spraying
Method in brief: as §1

Digitaria sanguinalis [7] = experiment: Pre-emergence treatment, herbicidal efficacy on large crabgrass; settings: 4 weeks after spraying, scale 0 to 10
Method in brief: as §1

Poa annua [8] = experiment: Pre-emergence treatment, herbicidal efficacy on annual bluegrass; settings: 4 weeks after spraying, scale 0 to 10
Method in brief: as §1

Alopecurus myosuroides [9] = experiment: Pre-emergence treatment, herbicidal efficacy on blackgrass; settings: 4 weeks after spraying, scale 0 to 10
Method in brief: as §1

Corn [10] = experiment: Post-emergence treatment, phytotoxicity to corn; settings: post-emergence (about 3 leaf stage), 1,000 g/ha, 4 weeks after spraying, scale 0 to 10 (0: no effects, 10: complete death)
Method in brief: (§2)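 Weeds and crops in 1:1 sandy loam/bed soil were sprayed at about 3-leaf stage (second week) at 1,000, 500, 250 and 125 g/ha, 300 L/ha, in acetone/0.2% Tween 20. Greenhouse 25–30° C day, 15–25° C night; efficacy and phytotoxicity scored 0–10 (10 = complete death) after four weeks.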

Soybean [11] = experiment: Post-emergence treatment, phytotoxicity to soybean; settings: post-emergence (about 3 leaf stage), 1,000 g/ha, 4 weeks after spraying, scale 0 to 10 (0: no effects, 10: complete death)
Method in brief: as §2

Cotton [12] = experiment: Post-emergence treatment, phytotoxicity to cotton; settings: post-emergence (about 3 leaf stage), 1,000 g/ha, 4 weeks after spraying, scale 0 to 10 (0: no effects, 10: complete death)
Method in brief: as §2

Wheat [13] = experiment: Post-emergence treatment, phytotoxicity to wheat; settings: post-emergence (about 3 leaf stage), 1,000 g/ha, 4 weeks after spraying, scale 0 to 10 (0: no effects, 10: complete death)
Method in brief: as §2

Rice [14] = experiment: Post-emergence treatment, phytotoxicity to rice; settings: post-emergence (about 3 leaf stage), 1,000 g/ha, 4 weeks after spraying, scale 0 to 10 (0: no effects, 10: complete death)
Method in brief: as §2

Echinochloa crusgalli [15] = experiment: Post-emergence treatment, herbicidal efficacy on barnyardgrass; settings: 4 weeks after spraying, scale 0 to 10
Method in brief: as §2

Digitaria sanguinalis [16] = experiment: Post-emergence treatment, herbicidal efficacy on large crabgrass; settings: 4 weeks after spraying, scale 0 to 10
Method in brief: as §2

Poa annua [17] = experiment: Post-emergence treatment, herbicidal efficacy on annual bluegrass; settings: 4 weeks after spraying, scale 0 to 10
Method in brief: as §2

Alopecurus myosuroides [18] = experiment: Post-emergence treatment, herbicidal efficacy on blackgrass; settings: 4 weeks after spraying, scale 0 to 10
Method in brief: as §2

[19] = tested on: grass weeds including barnyardrass, large crabgrass, and annual bluegrass; experiment: Pre-emergence treatment, grass weeds overall; settings: relative to reference compounds
Experimental: (§3) A rectangular plastic pot having a surface area of 300 cm^2 was filled with sandy loam soil and mixed bed soil which were mixed at a ratio of 1:1, and then, barnyardrass (Echinochloa crusgalli), large crabgrass (Digitaria sanguinalis), blackgrass (Alopecurus myosuroides), and annual bluegrass (Poa annua), which are grass weeds, were seeded thereto. In a pot that was prepared as described above, seeds of corn, soybean, cotton, wheat, and rice were seeded. The pots were irrigated, and one day after, chemicals were sprayed thereto. The spraying was performed by using a track sprayer (R&D Sprayer, USA) equipped with a Teejet 8002 (Spraying Systems Co., USA) nozzle, and a spraying amount was adjusted at 300 L/ha. A spraying solution was prepared by dissolving test materials or references in acetone and adding the same amount of 0.2%(v/v) tween 20 aqueous solution thereto. Application rates were 500, 250, 125, and 62.5 g/ha. The pots were placed in a greenhouse in which during day, the temperature was maintained at a temperature of 25 to 30° C., and during night, the temperature was maintained at a temperature of 15 to 25° C., and the pots were periodically irrigated. Four weeks after the spraying the test materials or References, effects and phytotoxicity of the respective weeds and crops were evaluated in a scale of 0 to 10 (0: no effects, 10: complete death), and results thereof are shown in Table 4 below.

[20] = tested on: barnyardgrass, large crabgrass, and annual bluegrass; experiment: Post-emergence treatment, grass weeds overall; settings: 250 g/ha
Experimental: as §3
Pots containing crops and weeds were prepared in the same manner as in Example 7, and then, in the second week in which crops and weeds entered into about 3 leaf stage, the test materials and the references were sprayed thereto in the same manner as described above. The rates were 1,000, 500, 250, and 125 g/ha. Four weeks after the spraying of the test materials or the references, herbicidal efficacy and phytotoxicity to the respective weeds and crops were evaluated in a scale of 0 to 10 (0: no effects, 10: complete death).

**Q.** How did the “Phytotoxicity, Corn” value (Corn [1]) turn out when `CC1(COCc2c(F)cccc2F)CC(c2ccccc2C(F)(F)F)=NO1` (centres unmarked) [Compound 5, 5-((2,6-difluorobenzyloxy)methyl)-5-methyl-3-(2-(trifluoromethyl)phenyl)-4,5-dihydroisoxazole] was run?
**A.** 3

**Q.** And the “Phytotoxicity, Soybean” value (Soybean [2])?
**A.** 2

**Q.** What about the “Phytotoxicity, Cotton” value (Cotton [3]) of the same compound?
**A.** 1

**Q.** And the “Phytotoxicity, Wheat” value (Wheat [4])?
**A.** 0

**Q.** And the “Phytotoxicity, Rice” value (Rice [5])?
**A.** 0

**Q.** And the “Herbicidal efficacy, Echinochloa crusgalli” value (Echinochloa crusgalli [6]; 62.5 g/ha, scale 0 to 10)?
**A.** 10

**Q.** What about the “Herbicidal efficacy, Echinochloa crusgalli” value (Echinochloa crusgalli [6]; 125 g/ha, scale 0 to 10) of the same compound?
**A.** 10

**Q.** What about the “Herbicidal efficacy, Echinochloa crusgalli” value (Echinochloa crusgalli [6]; 250 g/ha, scale 0 to 10) of the same compound?
**A.** 10

**Q.** And the “Herbicidal efficacy, Echinochloa crusgalli” value (Echinochloa crusgalli [6]; 500 g/ha, scale 0 to 10 (0: no effects, 10: complete death))?
**A.** 10

**Q.** What about the “Herbicidal efficacy, Digitaria sanguinalis” value (Digitaria sanguinalis [7]; 62.5 g/ha) of the same compound?
**A.** 10

**Q.** What about the “Herbicidal efficacy, Digitaria sanguinalis” value (Digitaria sanguinalis [7]; 125 g/ha) of the same compound?
**A.** 10

**Q.** What about the “Herbicidal efficacy, Digitaria sanguinalis” value (Digitaria sanguinalis [7]; 250 g/ha) of the same compound?
**A.** 10

**Q.** And the “Herbicidal efficacy, Digitaria sanguinalis” value (Digitaria sanguinalis [7]; 500 g/ha)?
**A.** 10

**Q.** What about the “Herbicidal efficacy, Poa annua” value (Poa annua [8]; 62.5 g/ha) of the same compound?
**A.** 9

**Q.** And the “Herbicidal efficacy, Poa annua” value (Poa annua [8]; 125 g/ha)?
**A.** 9

**Q.** And the “Herbicidal efficacy, Poa annua” value (Poa annua [8]; 250 g/ha)?
**A.** 9

**Q.** And the “Herbicidal efficacy, Poa annua” value (Poa annua [8]; 500 g/ha)?
**A.** 10

**Q.** And the “Herbicidal efficacy, Alopecurus myosuroides” value (Alopecurus myosuroides [9]; 62.5 g/ha)?
**A.** 5

**Q.** And the “Herbicidal efficacy, Alopecurus myosuroides” value (Alopecurus myosuroides [9]; 125 g/ha)?
**A.** 6

**Q.** What about the “Herbicidal efficacy, Alopecurus myosuroides” value (Alopecurus myosuroides [9]; 250 g/ha) of the same compound?
**A.** 7

**Q.** And the “Herbicidal efficacy, Alopecurus myosuroides” value (Alopecurus myosuroides [9]; 500 g/ha)?
**A.** 8

**Q.** And the “Phytotoxicity, Corn” value (Corn [10])?
**A.** 5

**Q.** What about the “Phytotoxicity, Soybean” value (Soybean [11]) of the same compound?
**A.** 2

**Q.** What about the “Phytotoxicity, Cotton” value (Cotton [12]) of the same compound?
**A.** 0

**Q.** And the “Phytotoxicity, Wheat” value (Wheat [13])?
**A.** 0

**Q.** And the “Phytotoxicity, Rice” value (Rice [14])?
**A.** 0

**Q.** And the “Herbicidal efficacy, Echinochloa crusgalli” value (Echinochloa crusgalli [15]; post-emergence, 125 g/ha)?
**A.** 6

**Q.** What about the “Herbicidal efficacy, Echinochloa crusgalli” value (Echinochloa crusgalli [15]; post-emergence, 250 g/ha) of the same compound?
**A.** 8

**Q.** And the “Herbicidal efficacy, Echinochloa crusgalli” value (Echinochloa crusgalli [15]; post-emergence, 500 g/ha)?
**A.** 10

**Q.** And the “Herbicidal efficacy, Echinochloa crusgalli” value (Echinochloa crusgalli [15]; post-emergence, 1,000 g/ha)?
**A.** 10

**Q.** What about the “Herbicidal efficacy, Digitaria sanguinalis” value (Digitaria sanguinalis [16]; post-emergence, 125 g/ha) of the same compound?
**A.** 6

**Q.** And the “Herbicidal efficacy, Digitaria sanguinalis” value (Digitaria sanguinalis [16]; post-emergence, 250 g/ha)?
**A.** 8

**Q.** And the “Herbicidal efficacy, Digitaria sanguinalis” value (Digitaria sanguinalis [16]; post-emergence, 500 g/ha)?
**A.** 10

**Q.** And the “Herbicidal efficacy, Digitaria sanguinalis” value (Digitaria sanguinalis [16]; post-emergence, 1,000 g/ha)?
**A.** 10

**Q.** And the “Herbicidal efficacy, Poa annua” value (Poa annua [17]; post-emergence, 125 g/ha)?
**A.** 6

**Q.** What about the “Herbicidal efficacy, Poa annua” value (Poa annua [17]; post-emergence, 250 g/ha) of the same compound?
**A.** 7

**Q.** And the “Herbicidal efficacy, Poa annua” value (Poa annua [17]; post-emergence, 500 g/ha)?
**A.** 8

**Q.** What about the “Herbicidal efficacy, Poa annua” value (Poa annua [17]; post-emergence, 1,000 g/ha) of the same compound?
**A.** 10

**Q.** And the “Herbicidal efficacy, Alopecurus myosuroides” value (Alopecurus myosuroides [18]; post-emergence, 125 g/ha)?
**A.** 1

**Q.** What about the “Herbicidal efficacy, Alopecurus myosuroides” value (Alopecurus myosuroides [18]; post-emergence, 250 g/ha) of the same compound?
**A.** 4

**Q.** And the “Herbicidal efficacy, Alopecurus myosuroides” value (Alopecurus myosuroides [18]; post-emergence, 500 g/ha)?
**A.** 5

**Q.** And the “Herbicidal efficacy, Alopecurus myosuroides” value (Alopecurus myosuroides [18]; post-emergence, 1,000 g/ha)?
**A.** 9

**Q.** And the “efficacy stronger than the References” value [19]?
**A.** about 8 times

**Q.** What about the “suppression of barnyardgrass, large crabgrass, and annual bluegrass” value [20] of the same compound?
**A.** greatly suppressed
